Assay results as given in article PMC3764026, “Adaptive Evolution of Escherichia coli to an α-Peptide/β-Peptoid Peptidomimetic Induces Stable Resistance” (PLoS ONE, 2013).
Values after ≈ are worked out from the molar mass of the structure shown. Where two headings read alike, the source gives them in different places.

Experiments:
[1] = system: isolates from peptidomimetic 1-exposed E. coli ATCC 25922 lineages; settings: for MIC in MHB: standard MHB media
Experimental: (§1) Continuous selection of resistance was performed for peptidomimetic 1 (Figure 1) and for the clinically relevant natural antimicrobial peptide, polymyxin B. A bacterial suspension of a single colony of E. coli ATCC 25922 was re-inoculated (10 µl) five times in unsupplemented MHB (990 µl). It was then re-inoculated in MHB supplemented with peptidomimetic 1 (ten lineages) or polymyxin B (ten lineages), and after ten re-inoculations at constant peptidomimetic or polymyxin B concentration, the concentrations were doubled. […] Four lineages grown in MHB with MilliQ water were included as control. Re-inoculations were performed twice a day, but were reduced to once a day when growth was slower as assessed by turbidity of the cultures. The total number of passages (supplemented with peptidomimetic/AMP) was 77 times equivalent to approx. 500 generations. For each increase in concentration the lineages were preserved as freezing stocks. Ten colony isolates were randomly selected from each lineage population at 32×MIC and preserved as freezing stocks.
(§2) MIC was determined by using the micro-dilution method according to guidelines of the Clinical and Laboratory Standards Institute. Peptidomimetic 1 and erythromycin 1∶2 serial dilutions were prepared from 1024 µg/mL stock solutions to give a final range of 512-0.5 µg/mL in the wells. Ampicillin 1∶2 serial dilutions were prepared from a 256 µg/mL stock solution to give a final range of 128-0.13 µg/mL in the wells. Polymyxin B and gentamicin 1∶2 serial dilutions were prepared from a 64 µg/mL stock solution to give a final range of 32-0.03 µg/mL in the wells.
(§3) The population lineages were tested for their susceptibility towards peptidomimetic 1, polymyxin B, gentamicin and ampicillin. Single-culture isolates selected from these populations were additionally tested against peptidomimetic 1, polymyxin B, erythromycin and the five reference AMPs. To estimate the level of cross-resistance to closely related peptidomimetics, MIC determinations were performed for peptidomimetics 2 and 3 (Figure 1) towards selected isolates. The bacterial suspensions were grown overnight in MHB at 37°C for determination of the population MIC, or individual isolates were grown overnight on non-selective BHI agar at 37°C. […] In all experiments, bacterial cells were suspended in 0.9% saline to give a turbidity of 0.13 at OD546 (approximately 1×10^8 CFU/mL) and diluted in MHB pH 7.4 to a final concentration of 5×10^5 CFU/mL in each well. Polypropylene plates (Nunc 442587) were used to minimize peptide binding, and the incubation time was 18–20 hours at 37°C. […] MIC was found in a minimum of two technical (population MIC) or biological (isolate MIC) replicates as the lowest concentration of the AMP or antibiotic where no visible growth was observed.

E. coli ATCC 25922 [2] = assay: Growth rate in MHB supplemented with peptidomimetic 1, wild type; assay type: cell-based, Escherichia coli; settings: E. coli ATCC 25922 exposed to 1/16 or 1/32×wt MIC of peptidomimetic 1; p>0.05
Experimental: (§4) To evaluate whether resistance altered the physiology of the isolates, we determined the growth rate of all forty isolates from lineage 2, 4, 5 and 7 as well as of E. coli ATCC 25922 in unsupplemented MHB media. Additionally, we determined the growth rate of the four isolates 2-7, 4-4, 5-6 and 7-3, in MHB supplemented with peptidomimetic 1 at ½×wild type MIC or 1×wild type MIC (i.e. 4 and 8 µg/mL). […] Optical density readings were obtained at 570 nm at 10–12 minute increments on cultures grown at 37°C over 24 hours (unsupplemented MHB) or 72 hours (supplemented MHB) using the automated Bioscreen C system (Labsystems, Helsinki, Finland). Growth rates were found using linear regression on ln(initial CFU/mL) vs. detection time (i.e. the time until a 0.5 unit increase in absorbance was reached) for inoculum sizes ranging from 10^2–10^7 CFU/mL [58]. Data were analysed in GraphPad Prism version 4.03 using One-Way ANOVA followed by Dunnett’s Test to correct for multiple testing. Control groups were E. coli ATCC 25922 (in the absence of peptidomimetic) or E. coli ATCC 25922/isolates grown in unsupplemented media (in the presence of peptidomimetic). Significance levels were in all tests set at p<0.05. All experiments were performed in duplicate on at least two independent days.

[3] = system: Escherichia coli ATCC 25922; assay: Continuous selection experiment; assay type: cell-based
Experimental: as §1

[4] = system: peptidomimetic-adapted E. coli isolates 2-7 and 7-3; assay: Growth rate in MHB supplemented with peptidomimetic 1, adapted isolates; assay type: cell-based, Escherichia coli
Experimental: as §4

[5] = system: peptidomimetic-adapted E. coli isolates; settings: for Potentiation (ability of plasma to interact synergistically with peptidomimetic 1): MHB vs MHB +25% plasma; for MIC in MHB +25% plasma: MHB with 25% human blood plasma (sodium citrate)
Experimental: as §2, §3
(§5) Four isolates, i.e. 2-7, 4-4, 5-6 and 7-3, a representative isolate from four different lineages, were revived from freeze storage. The four isolates were grown in 25–50% blood plasma and in 25–50% heat-inactivated plasma as previously described. Blood plasma was obtained from two different blood donors using sodium citrate as anticoagulant and experiments were performed on at least two independent days. Both donors were fully informed about the study and purpose and a written consent has been received. […] For this the 1∶2 serial dilutions were made in MHB with 50% blood plasma added to give a final concentration of 25% plasma in the wells.

E. coli ATCC 25922 [6] = settings: wild-type E. coli ATCC 25922
Experimental: as §2, §3, §5

CC(=O)N[C@@H](CCCCNC(=N)N)C(=O)N(CCC(=O)N[C@@H](CCCCNC(=N)N)C(=O)N(CCC(=O)N[C@@H](CCCCNC(=N)N)C(=O)N(CCC(=O)N[C@@H](CCCCNC(=N)N)C(=O)N(CCC(=O)N[C@@H](CCCCNC(=N)N)C(=O)N(CCC(=O)N[C@@H](CCCCNC(=N)N)C(=O)N(CCC(N)=O)[C@@H](C)c1ccccc1)[C@@H](C)c1ccccc1)[C@@H](C)c1ccccc1)[C@@H](C)c1ccccc1)[C@@H](C)c1ccccc1)[C@@H](C)c1ccccc1 [peptidomimetic 1]
MIC of individual isolates ([1]; eight out of ten isolates from lineage no. 4): 8 µg/mL
MIC of isolate ([1]; isolate 2–3, first listed of three biological replicates): 8 µg/mL
MIC of isolate ([1]; isolate 2–3, second listed of three biological replicates): 16 µg/mL
MIC of isolate ([1]; isolate 2–3, third listed of three biological replicates): 64 µg/mL
MIC in MHB ([1]; isolate 2–7 (lineage 2)): 64 to 128 µg/mL
MIC of isolate ([1]; isolate 2–8, first listed of three biological replicates): 16 µg/mL
MIC of isolate ([1]; isolate 2–8, second listed of three biological replicates): 64 µg/mL
MIC of isolate ([1]; isolate 2–8, third listed of three biological replicates): 128 µg/mL
MIC in MHB ([1]; isolate 4–4 (lineage 4)): 8 µg/mL (≈ 3.75 µM)
MIC in MHB ([1]; isolate 5–6 (lineage 5)): 32 to 64 µg/mL
MIC in MHB ([1]; isolate 7–3 (lineage 7)): 128 µg/mL (≈ 60 µM)
grouping of genome-sequenced isolates by MIC: high resistance ([1]; isolates 2–4, 2–6, 2–7, 2–9, 2–10, 7–3, 7–4, 7–7, wt MIC value 8 µg/mL): High resistance isolates: 8–16 ×wt MIC
MIC ([1]; isolates 2–4 and 2–6 (shared values), two biological replicates, mean when results varied): 96 µg/mL (≈ 45 µM)
grouping of genome-sequenced isolates by MIC: low resistance ([1]; isolates 4-1, 4-3, 5-6, 5-8, 5-9, wt MIC value 8 µg/mL): Low resistance isolates: 4–8 ×wt MIC
grouping of genome-sequenced isolates by MIC ([1]; isolates 4–4, 4–6, 4–10, 5–2, 5–4, 7–9, 7–10, wt MIC value 8 µg/mL): Isolates with wt MIC
MIC of individual isolates ([1]; seven out of ten isolates from lineage no. 5): 8 µg/mL
MIC lower as compared to that of the lineage population (256 µg/mL) ([1]; the other two isolates from lineage no. 4): 4 fold
MIC of individual isolates, span ([1]; the ten isolates from lineage no. 2, biological replicates): 8 to 128 µg/mL
MIC of individual isolates, span ([1]; the ten isolates from lineage no. 7): 8 to 128 µg/mL
growth rate (E. coli ATCC 25922 [2]): reduced growth rate was not seen
lineages that eventually grew at 32×wt MIC ([3]; ten lineages per agent, from 1/16×wt MIC, doubled stepwise, 77 inoculations, approx. 500 generations, 32×wt MIC = 256 µg/mL peptidomimetic 1, 32 µg/mL polymyxin B): All ten
growth of unexposed control lineages at 4×wt MIC ([3]; two controls per agent, 32 µg/mL peptidomimetic 1 or 4 µg/mL polymyxin B): failed to grow
growth rate ([4]; isolate 2–7, MHB with 4 µg/mL peptidomimetic 1 (1/32×MIC), p<0.01 vs unsupplemented): significantly reduced growth rate
growth rate ([4]; isolate 2–7, MHB with 8 µg/mL peptidomimetic 1 (1/16×isolate MIC), p<0.01 vs unsupplemented, Bioscreen C, 37°C, 72 h): significantly reduced
growth rate ([4]; isolate 7-3, MHB with 8 µg/mL peptidomimetic 1 (1/16×isolate MIC), p<0.05 vs unsupplemented, Bioscreen C, 37°C, 72 h): significantly reduced
Potentiation (ability of plasma to interact synergistically with peptidomimetic 1) ([5]; isolate 2–7): Strong
MIC in MHB +25% plasma ([5]; isolate 2–7): 0.25 to 2 µg/mL
Potentiation (ability of plasma to interact synergistically with peptidomimetic 1) ([5]; isolate 4–4): Weak
MIC in MHB +25% plasma ([5]; isolate 4–4): 1 to 4 µg/mL
Potentiation (ability of plasma to interact synergistically with peptidomimetic 1) ([5]; isolate 5–6): Weak
MIC in MHB +25% plasma ([5]; isolate 5–6): 4 to 8 µg/mL
Potentiation (ability of plasma to interact synergistically with peptidomimetic 1) ([5]; isolate 7–3): Strong
MIC in MHB +25% plasma ([5]; isolate 7–3): 1 to 2 µg/mL
Potentiation (ability of plasma to interact synergistically with peptidomimetic 1) (E. coli ATCC 25922 [6]; MHB vs MHB +25% plasma): Weak
MIC in MHB +25% plasma (E. coli ATCC 25922 [6]; MHB with 25% human blood plasma (sodium citrate)): 2 µg/mL (≈ 0.938 µM)
